For three compounds, IC50 results are on record in patent US20030206972A1, “Compositions containing carotenoids and tocotrienols and having synergistic antioxidant effect” (priority 2000, published 2003).

Molecules are shown by their SMILES. Several values for one entry are separate records, joined by “and”; a condition that tells them apart may be missing. Equal values may be shown once.

The experiment is described as follows: Peroxy radical scavenging activity (BODIPY 581/591 C11 fluorescence, AMVN radical generator, microplate); synergy by CalcuSyn median-effect method. The format is biochemical. Particulars: test material alone, 50 percent inhibition of peroxy radical formation, parenthetic values 95% confidence intervals. Here is the method: As a peroxy radical generator, 2,2′-azobis-2,4-dimethyl valeronitrile (AMVN) was used and obtained from WAKO Chemicals (Richmond, Va.). All standards were of the highest purity commercially available. Additionally, the solvents were of HPLC grade.
Fluorescence measurements were performed using a Packard FluoroCount microplate fluorometer equipped with a temperature-controlled plate holder. All measurements were preformed in a 96-well polypropylene plate with stirring.
Reactions in octane:butyronitrile (9:1, v/v) were carried out at 30° C. All fluorescence measurements were recorded every 15 minutes for 1 hour at excitation wavelengths of 570 nm, with emission at 620 nm. The net protection (area under the curve, AUC) provided by an antioxidant sample was calculated using the trapezoid method. […] The percent inhibition of each dose was calculated as:
[AUC(dose)−AUC(AMVN)]/[AUC(BODIPY)−AUC(AMVN)]×100.
Stock solutions of the test samples were made up in chloroform and 6 μL were added to the reaction mixture to achieve the stated concentrations. The reaction was initiated by the addition of the AMVN and fluorometric readings were recorded every 15 minutes for one hour.
Synergy between astaxanthin and the sample of mixed tocotrienols was assessed using CalcuSyn (BIOSOFT, biosoft.com).
Cm is determined from the x-intercept of the median-effect plot. The fraction affected by the concentration of the test material is fa and the fraction unaffected by the concentration is fu (fu=1−fa). The exponent m is the parameter signifying the sigmoidicity or shape of the dose-effect curve. It is estimated by the slope of the median-effect plot.
The median-effect plot is a plot of x=log(C) vs y=log(fa/fu) and is based on the logarithmic form of Chou's median-effect equation. The goodness of fit for the data to the median-effect equation is represented by the linear correlation coefficient r of the median-effect plot. Usually, the experimental data from enzyme or receptor systems have an r>0.96, from tissue culture an r>0.90 and from animal systems an r>0.85.
Synergy of test components is quantified using the combination index (CI) parameter. […] The equation determines only the additive effect rather than synergism or antagonism.
Dose-response curves were described with each test article separately and then in a two-way combination.

In the case of `CC1=C[C@H](O)CC(C)(C)[C@H]1/C=C/C(C)=C/C=C/C(C)=C/C=C/C=C(C)/C=C/C=C(C)/C=C/C1=C(C)C[C@@H](O)CC1(C)C` [Lutein, lutein], the IC50 is given as 38 (29-50) μg/mL.

`CC1=C(/C=C/C(C)=C/C=C/C(C)=C/C=C/C=C(C)/C=C/C=C(C)/C=C/C2=C(C)C(=O)[C@@H](O)CC2(C)C)C(C)(C)C[C@H](O)C1=O` [Astaxanthin, 3,3′-dihydroxy-β,β-carotene-4,4′-dieto-β-carotene]: the IC50 is 150 (115-194) μg/mL and 182 (145-227) μg/mL. Also, the IC50 (listed as astaxanthin) is 196 µg/mL and 195 µg/mL.

For `CC1=C(/C=C/C(C)=C/C=C/C(C)=C/C=C/C=C(C)/C=C/C=C(C)/C=C/C2=C(C)CCCC2(C)C)C(C)(C)CCC1` [β-Carotene, β-carotene], the IC50 was 196 (171-226) μg/mL and 135 (85-215) μg/mL.
